The subject of one assay is P388. Kind of assay: Cytotoxic activity against P-388 cell lines. It counts as functional, cell-based. As to conditions: Mus musculus.
For the next assay, the system named is HT-29. Kind of assay: Cytotoxic activity against HT-29 cell lines. The format is functional, cell-based. Conditions: Homo sapiens.
A further assay relates to A549. Kind of assay: Cytotoxic activity against A-549 cell lines. The format is functional, cell-based. Conditions: Homo sapiens.
A further assay deals with SK-MEL-28. In words: Cytotoxic activity against MEL-28 cell lines. It counts as functional, cell-based. As to conditions: Homo sapiens.
A further assay concerns SK-MEL-2. In words: Cytotoxic activity against SK-MEL-2 melanoma cell lines. The format is functional. As to conditions: Homo sapiens.
The next assay deals with BT-549. In words: Cytotoxic activity against […] breast cancer cell lines. The format is functional. As to conditions: Homo sapiens.
A further assay has as its system SNB-75. In words: Cytotoxic activity against SNB-75 CNS tumor cell line cell lines. The format is functional. Conditions: Homo sapiens.
For the next assay, the system named is SNB-19. In words: Cytotoxic activity against SNB-19 CNS tumor cell lines. It counts as functional. As to conditions: Homo sapiens.
In a further assay the test system is U-251. In words: Cytotoxic activity against U251 CNS tumor cell line cell lines. The format is functional. Conditions: Homo sapiens.
A further assay concerns A498. Kind of assay: Cytotoxic activity against A 498 renal cancer cell lines. The format is functional. Conditions: Homo sapiens.
For the next assay, the system named is T47D. In words: Cytotoxic activity against T-47D breast cancer cell lines. It counts as functional. Conditions: Homo sapiens.
A further assay deals with OVCAR-4. In words: Cytotoxic activity against OVCAR-4 ovarian cancer cell lines. It counts as functional. As to conditions: Homo sapiens.
The test system of another assay is RXF 393. Kind of assay: Cytotoxic activity against […] renal cancer cell lines. It counts as functional. Conditions: Homo sapiens.
Another assay relates to HOP-92. Kind of assay: Cytotoxic activity against HOP-92 non small cell lung cancer cell lines. It counts as functional. As to conditions: Homo sapiens.
In a further assay the test system is UACC-62. In words: Cytotoxic activity against UACC-62 melanoma cell lines. The format is functional. Conditions: Homo sapiens.
The next assay relates to HL-60. Kind of assay: Cytotoxic activity against HL-60(TB) leukemia cell lines. The format is functional. Conditions: Homo sapiens.
For another assay, the system named is K562. In words: Cytotoxic activity against K-562 leukemia cell lines. It counts as functional. Conditions: Homo sapiens.
A further assay concerns MDA-N. In words: Cytotoxic activity against MDA-N breast cancer cell lines. It counts as functional. Conditions: Homo sapiens.
A further assay has as its system MDA-MB-435. In words: Cytotoxic activity against MDA-MB-435 breast cancer cell lines. It counts as functional. Conditions: Homo sapiens.
For another assay, the system named is HOP-62. In words: Cytotoxic activity against HOP-62 non small cell lung cancer cell lines. Conditions: Homo sapiens. It counts as functional.

Broadly, the pIC50 is −log10 of the IC50, conventionally taken in molar units. Low readings indicate a large IC50, high ones a small IC50. A word on the GI50: it is the concentration at which growth is held to half of that of the control. A higher GI50 goes with lower sensitivity of the cells.

Each structure is given as a SMILES string. pIC50: −log10 of the molar value. Where only a bound is given, the exact number is not on record here.

For the compound `COc1cc([C@@H]2Cc3[nH]c4ccc(C)cc4c3[C@@H]3C(=O)N(c4ccccc4)C(=O)[C@H]23)cc(OC)c1OC`, the pIC50 in the assay with P388, in the assay on HT-29, in the assay on A549 and with SK-MEL-28 was 4.70 each time.
On to `COc1cc([C@@H]2Cc3[nH]c4ccccc4c3[C@@H]3C(=O)N(c4ccccc4)C(=O)[C@H]23)cc(OC)c1OC`, for which the GI50 with SK-MEL-2 is 27.5 µM; in the assay on BT-549, 25.1 µM; with SNB-75, 26.9 µM; in the assay on SNB-19, 25.7 µM; with U-251, 34.7 µM; in the assay with A498 it was 33.1 µM. Moreover, the GI50 is 25.1 µM with T47D; 26.9 µM in the assay on OVCAR-4; 20.4 µM with RXF 393; 13.2 µM in the assay on HOP-92; 24 µM in the assay with UACC-62; 31.6 µM in the assay with HL-60. Moreover, the GI50 with K562 is 31.6 µM; with MDA-N, 30.2 µM; in the assay on MDA-MB-435, 21.9 µM; in the assay on HOP-62 it was 16.2 µM. For the same compound, the pIC50 is 6.30 with P388, 5.68 with HT-29, 5.68 in the assay with A549 and 5.68 with SK-MEL-28.
On to `COc1cc([C@@H]2Cc3[nH]c4ccc(Br)cc4c3[C@@H]3C(=O)N(c4ccccc4)C(=O)[C@H]23)cc(OC)c1OC`, for which the pIC50 with P388, in the assay on HT-29, in the assay on A549 and in the assay with SK-MEL-28 was less than 4.75 throughout.

Source of the values: ChEMBL document CHEMBL1129200, “Synthesis and cytotoxic activity of phenyl-hexahydropyrrolo[3,4-c]carbazoles” (Bioorg Med Chem Lett, 1996).
